According to patent publication US11207312B2, “Metallo-beta-lactamase inhibitors and methods of use thereof” (priority 2017, dated 2021):

Tests used:
[1] = biological target: NDM-1 (Klebsiella pneumoniae, UniProt C7C422); assay: biochemical; assay type: biochemical; details: CCF2-FA fluorescence assay, 2 hours at 25° C.
Method in brief: (§1)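 Metallo-β-lactamase activity read by fluorescence against CCF2-FA (1.25 μM final) in 100 mM KH2PO4 pH 7 with 0.005% Tween-20 and 10 μM ZnSO4; enzyme final at 1 pM NDM-1, 2 pM IMP-1 or 30 pM VIM-1. Inhibitor at 20 to 0.00063 μM, 2 h at 25° C; IC50 by 4-parameter fit.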

[2] = biological target: VIM-2 (Escherichia coli, UniProt Q5U7L7); assay: biochemical; details: CCF2-FA fluorescence assay; read-out: VIM2 IC50
[3] = biological target: VIM-1 (Pseudomonas aeruginosa (strain ATCC 15692 / DSM 22644 / CIP 104116 / JCM 14847 / LMG 12228 / 1C / PRS 101 / PAO1), UniProt A0A0F7KYQ8); assay: biochemical; details: CCF2-FA fluorescence assay, 2 hours at 25° C.; read-out: VIM1 IC50
Method in brief: as §1

[4] = biological target: IMP-1 (Serratia marcescens, UniProt P52699); assay: biochemical; details: CCF2-FA fluorescence assay, 2 hours at 25° C.; read-out: IMP1 IC50
IMP-1, sequence (P52699 whole entry, looked up, species assumed): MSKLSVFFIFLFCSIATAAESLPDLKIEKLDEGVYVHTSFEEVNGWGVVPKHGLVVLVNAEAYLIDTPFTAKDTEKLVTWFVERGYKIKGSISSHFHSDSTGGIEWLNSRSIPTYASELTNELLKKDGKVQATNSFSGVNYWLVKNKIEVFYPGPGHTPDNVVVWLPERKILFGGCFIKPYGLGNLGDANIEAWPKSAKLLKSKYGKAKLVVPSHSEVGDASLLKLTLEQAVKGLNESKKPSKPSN
Method in brief: as §1

[5] = test system: P. aeruginosa MB9798 (efflux+, IMP-1 plasmid); details: for MB9798 MITC95 P. aeruginosa uM Efflux WT: efflux + (MB9798) strain, imipenem at 2 μg/mL, in the presence of a class A, C, D serine β-lactamase inhibitor closely related to relebactam; for Efflux ratio: fold difference between efflux+ (MB9798) and efflux− (MB9799) strains
Method in brief: (§2)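 Isogenic P. aeruginosa PAO1 strains (efflux+ and multiple-efflux-pump-disrupted) carrying plasmid IMP-1, with inducible AmpC, tested by broth microdilution. Imipenem and/or ceftazidime fixed, usually at CLSI breakpoint, plus fixed class A/C β-lactamase inhibitor; titrated MBL inhibitor concentration restoring susceptibility recorded and compared between strains as efflux fold difference.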

[6] = test system: P. aeruginosa MB9799 (efflux-, IMP-1 plasmid); assay type: cell-based, Pseudomonas aeruginosa; details: efflux − (MB9799) strain; imipenem at 2 μg/mL; in the presence of a class A, C, D serine β-lactamase inhibitor closely related to relebactam
Method in brief: as §2

[7] = test system: Serratia marcescens expressing IMP-1 (CL5741); assay type: cell-based; details: with imipenem 1 μg/ml; 95% inhibition of bacterial growth
Method in brief: (§3)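 Synergy with imipenem at a fixed 1 μg/ml was scored by absorbance following 22–24 h incubation at 35 °C; the potentiating concentration (MITC95) was the lowest giving 95% growth inhibition.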

[8] = test system: Klebsiella pneumoniae expressing VIM-1 (IHMA599644); assay type: cell-based; details: with imipenem 1 μg/ml; 95% inhibition of bacterial growth
Method in brief: as §3

[9] = test system: Escherichia coli expressing NDM-1 (CLB30016); assay type: cell-based; details: with imipenem 1 μg/ml; 95% inhibition of bacterial growth
Method in brief: as §3

NDM-1, sequence (C7C422 whole entry, looked up, species assumed): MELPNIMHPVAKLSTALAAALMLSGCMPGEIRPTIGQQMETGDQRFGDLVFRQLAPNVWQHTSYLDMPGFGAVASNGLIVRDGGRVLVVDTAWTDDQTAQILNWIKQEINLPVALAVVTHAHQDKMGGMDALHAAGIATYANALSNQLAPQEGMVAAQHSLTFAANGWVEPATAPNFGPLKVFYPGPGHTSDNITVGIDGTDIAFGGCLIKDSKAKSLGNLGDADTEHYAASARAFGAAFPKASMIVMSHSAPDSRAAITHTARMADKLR

Q: What does the source list for NS(=O)(=O)c1c(S(=O)(=O)N[C@@H]2CCNC2)ccc(N2CCC(S(N)(=O)=O)CC2)c1-c1nnn[nH]1 [Example 80, N1-[(3R)-pyrrolidin-3-yl]-4-(4-sulfamoylpiperidin-1-yl)-3-(1H-tetrazol-5-yl)benzene-1,2-disulfonamide]?
A: IC50 [1]: 0.3 nM; IC50 [2]: 0.66 nM; IC50 [3]: 0.13 nM; IC50 [4]: 0.43 nM; MB9798 MITC95 P. aeruginosa uM Efflux WT [5]: 1.56 µM; Efflux ratio [5]: 1.00; MB9799 MITC95 P. aeruginosa uM Efflux Mutant [6]: 1.56 µM; CL5741 S. marcescens MITC95 IMP [7]: 0.78 µM; IHMA599644 K. pneumoniae MITC95 VIM [8]: 3.13 µM; CLB30016 E. coli MITC95 NDM [9]: 1.56 µM

Q: For NS(=O)(=O)c1c(S(=O)(=O)N[C@@H]2CCNC2)ccc(N2CC(N3CCOCC3)C2)c1-c1nnn[nH]1 [Example 111, 4-(3-morpholin-4-ylazetidin-1-yl)-N1-[(3R)-pyrrolidin-3-yl]-3-(1H-tetrazol-5-yl)benzene-1,2-disulfonamide], which IC50 [1] is on record?
A: 4.56 nM

Q: What about the IC50 [2] of the same molecule?
A: 8.65 nM

Q: What about the IC50 [3] of the same molecule?
A: 1.24 nM

Q: What about the IC50 [4] of the same molecule?
A: 4.16 nM

Q: And the “MB9798 MITC95 P. aeruginosa uM Efflux WT” value [5]?
A: 12.50 µM

Q: And the Efflux ratio [5]?
A: 8.00

Q: And the “MB9799 MITC95 P. aeruginosa uM Efflux Mutant” value [6]?
A: 1.56 µM

Q: What about the “CL5741 S. marcescens MITC95 IMP” value [7] of the same molecule?
A: 1.56 µM

Q: And the “IHMA599644 K. pneumoniae MITC95 VIM” value [8]?
A: 3.13 µM

Q: What about the “CLB30016 E. coli MITC95 NDM” value [9] of the same molecule?
A: 0.78 µM

Q: How did the IC50 [1] turn out when NC[C@@H](O)CNS(=O)(=O)c1ccc(N2C[C@@H]3[C@@H](CN)[C@@H]3C2)c(-c2nn[nH]n2)c1S(N)(=O)=O [Example 11] was run?
A: 8.96 nM

Q: What about the IC50 [2] of the same molecule?
A: 24.7 nM

Q: What about the IC50 [3] of the same molecule?
A: 2.03 nM

Q: And the IC50 [4]?
A: 35.5 nM

Q: And the “MB9798 MITC95 P. aeruginosa uM Efflux WT” value [5]?
A: 6.25 µM

Q: And the Efflux ratio [5]?
A: 4.00

Q: And the “MB9799 MITC95 P. aeruginosa uM Efflux Mutant” value [6]?
A: 1.56 µM

Q: And the “CL5741 S. marcescens MITC95 IMP” value [7]?
A: 1.56 µM

Q: And the “IHMA599644 K. pneumoniae MITC95 VIM” value [8]?
A: 0.78 µM

Q: What about the “CLB30016 E. coli MITC95 NDM” value [9] of the same molecule?
A: 0.78 µM

Q: What does the source list for NCCNS(=O)(=O)c1ccc(N2CCN(CCO)CC2)c(-c2nnn[nH]2)c1S(N)(=O)=O [Example 48, N1-(2-aminoethyl)-4-(4-(2-hydroxyethyl)piper-azin-1-yl)-3-(1H-tetrazol-5-yl)benzene-1,2-disulfonamide]?
A: IC50 [1]: 1.52 nM; IC50 [2]: 15 nM; IC50 [3]: 7.23 nM; IC50 [4]: 5.59 nM; MB9798 MITC95 P. aeruginosa uM Efflux WT [5]: 1.56 µM; Efflux ratio [5]: 4.00; MB9799 MITC95 P. aeruginosa uM Efflux Mutant [6]: 0.39 µM; CL5741 S. marcescens MITC95 IMP [7]: 0.05 µM; IHMA599644 K. pneumoniae MITC95 VIM [8]: 0.39 µM; CLB30016 E. coli MITC95 NDM [9]: 0.05 µM

Q: Which IC50 [1] does the source give for NC[C@H]1CCCN(c2ccc(S(=O)(=O)N[C@@H]3CCNC3)c(S(N)(=O)=O)c2-c2nnn[nH]2)C1 [Example 82, 4-[(3R)-3-(aminomethyl)piperidin-1-yl]-N1-[(3R)-pyrrolidin-3-yl]-3-(1H-tetrazol-5-yl)benzene-1,2-disulfonamide] here?
A: 42.9 nM

Q: What about the IC50 [2] of the same molecule?
A: 9.33 nM

Q: And the IC50 [3]?
A: 0.9 nM

Q: And the IC50 [4]?
A: 45.6 nM

Q: And the “MB9798 MITC95 P. aeruginosa uM Efflux WT” value [5]?
A: 6.25 µM

Q: What about the Efflux ratio [5] of the same molecule?
A: 2.00

Q: And the “MB9799 MITC95 P. aeruginosa uM Efflux Mutant” value [6]?
A: 3.13 µM

Q: And the “CL5741 S. marcescens MITC95 IMP” value [7]?
A: 0.78 µM

Q: And the “IHMA599644 K. pneumoniae MITC95 VIM” value [8]?
A: 0.78 µM

Q: And the “CLB30016 E. coli MITC95 NDM” value [9]?
A: 0.78 µM

Q: For NC[C@@H](O)CNS(=O)(=O)c1ccc(N2CCN(CCO)C(=O)C2)c(-c2nn[nH]n2)c1S(N)(=O)=O [Example 146, (R)-N1-(3-amino-2-hydroxypropyl)-4-(4-(2-hydroxyethyl)-3-oxopiperazin-1-yl)-3-(2H-tetrazol-5-yl)benzene-1,2-disulfonamide], which IC50 [1] is on record?
A: 2.32 nM

Q: What about the IC50 [2] of the same molecule?
A: 1.77 nM

Q: And the IC50 [3]?
A: 0.31 nM

Q: And the IC50 [4]?
A: 2.25 nM

Q: And the “MB9798 MITC95 P. aeruginosa uM Efflux WT” value [5]?
A: 1.56 µM

Q: What about the Efflux ratio [5] of the same molecule?
A: 1.00

Q: What about the “MB9799 MITC95 P. aeruginosa uM Efflux Mutant” value [6] of the same molecule?
A: 1.56 µM

Q: What about the “CL5741 S. marcescens MITC95 IMP” value [7] of the same molecule?
A: 3.13 µM

Q: And the “IHMA599644 K. pneumoniae MITC95 VIM” value [8]?
A: 6.25 µM

Q: And the “CLB30016 E. coli MITC95 NDM” value [9]?
A: 1.56 µM
